Patent US6281248A, “Composition for treating asthma” (priority 2000, dated 2001)

Tests used:
[1] = Solubility of the present invention; assay type: physicochemical
[2] = In vitro protein binding with radiolabeled 3H-sertraline; assay type: in vitro ADME; settings: serum, 20 to 500 ng/mL, read-out: binding to serum proteins (converted)
[3] = Electrocardiograms of patients in double-blind trials; assay type: in vivo, human; settings: 774 patients
[4] = test system: beta-adrenergic blocking ability of atenolol; test: Interaction with atenolol in healthy male subjects; assay type: in vivo, human; settings: 100 mg
bacteria = test: Bacterial mutation assay; assay type: cell-based; settings: with or without metabolic activation
mouse lymphoma = test: Mouse lymphoma mutation assay; assay type: cell-based; settings: with or without metabolic activation
[5] = single dose, with vs without food
[6] = not given; remark: listed apart in the source
[7] = not given; remark: listed apart in the source
clinical [8] = settings: human, plasma
clinical [9] = settings: human, in vivo
clinical [10] = settings: human, in vivo, mean half-life
clinical [11] = settings: human, in vivo; remark: listed apart in the source
Metabolism = settings: in vivo
[12] = test system: dopamine neuronal reuptake; test: In vitro neuronal dopamine reuptake; settings: animals
[13] = Plasma clearance in elderly patients
[14] = In vitro biochemical testing of N-demethylsertraline
[15] = In vivo pharmacological testing of N-demethylsertraline
[16] = Desmethylsertraline pharmacokinetics, day 1 to day 14; assay type: in vivo
[17] = test system: plasma protein binding of warfarin; test: Plasma protein binding of warfarin; assay type: in vitro ADME; settings: sertraline up to 300 ng/mL, desmethylsertraline up to 200 ng/mL
[18] = test system: plasma protein binding of propranolol; test: Plasma protein binding of propranolol; assay type: in vitro ADME; settings: sertraline up to 300 ng/mL, desmethylsertraline up to 200 ng/mL

CN[C@H]1CC[C@@H](c2ccc(Cl)c(Cl)c2)c2ccccc21.Cl [sertraline, (1S-cis)-4-(3,4-dichlorophenyl)-1,2,3,4-tetrahydro-N-methyl-1-naphthalenamine hydrochloride]
solubility in ethanol ([1]; ethanol): sparing soluble | solubility in isopropyl alcohol ([1]; isopropyl alcohol): slightly soluble | solubility in water ([1]; water): slightly soluble | fraction unbound [2]: 0.02 | ECG abnormalities [3]: not associated with the development of significant ECG abnormalities | effect on the beta-adrenergic blocking ability of atenolol [4]: no effect | genotoxic effects, bacterial mutation assay (bacteria): no genotoxic effects | genotoxic effects, mouse lymphoma mutation assay (mouse lymphoma): no genotoxic effects | time to steady-state plasma levels (once-daily dosing, based on half-life): approximately one | Cmax dose proportionality (single dose, 50 to 200 mg): proportional to dose | AUC with food [5]: slightly increased | Cmax increase with food [5]: 25% | unchanged sertraline in the urine [6]: not detectable | mean half-life ([7]; human, in vivo): 27.8 h | gender associated differences ([7]; pediatric patients, males and females): No gender associated differences were observed | half-life (clinical [8]): ~26 h | dose excreted at 216 h (clinical [9]): 12 to 14% | half-life (clinical [10]): 26.2 h | half-life (clinical [11]): 27.2 h | first pass metabolism (Metabolism): extensive first pass metabolism | metabolic pathway (Metabolism): oxidative deamination and subsequent reduction, hydroxylation, and glucuronide conjugation | principal initial pathway of metabolism (Metabolism): N-demethylation | effects on dopamine neuronal reuptake [12]: only very weak effects | plasma clearance lower than in younger individuals ([13]; elderly, 100 mg/day for 14 days, vs 25 to 32 y.o.): approximately 40%

N[C@H]1CC[C@@H](c2ccc(Cl)c(Cl)c2)c2ccccc21 [N-demethylsertraline]
activity in in vitro biochemical testing relative to sertraline [14]: substantially less active than sertraline | activity in in vivo pharmacological testing relative to sertraline [15]: substantially less active than sertraline | increase in AUC (0-24 hour) between day 1 and day 14 ([16]; day 1 to day 14): 5-9 fold | increase in Cmax between day 1 and day 14 ([16]; day 1 to day 14): 5-9 fold | increase in Cmin between day 1 and day 14 ([16]; day 1 to day 14): 5-9 fold | time and dose dependence of AUC (0-24 hour), Cmax, and Cmin ([16]; in vivo): time-related, dose dependent increases | alteration of plasma protein binding of warfarin [17]: did not alter | alteration of plasma protein binding of propranolol [18]: did not alter | metabolic pathway (Metabolism): oxidative deamination and subsequent reduction, hydroxylation, and glucuronide conjugation | clearance in older males ([13]; older males): decreased clearance
